Results as given in patent US9981933B2, “Detergent compositions” (INNOSPEC LIMITED, priority 2013, dated 2018).

Assays:
[1] = In house foaming test (comparative foam heights); format: physicochemical; conditions: 1 wt % surfactant solution; relative to 1 wt % Sodium Laureth Sulphate (3EO) = 100
Description: A 1 wt % surfactant solution was prepared. The foam heights were measured using an in house foaming test and the results were compared with those obtained using a composition comprising 1 wt % Sodium Laureth Sulphate (3EO) [SLES].

Zein = test: In house qualitative test based on the Zein test (irritancy/mildness); format: in vitro; conditions: 1% surfactant solution; qualitative comparison
Description: The mass of residual Zein is determined gravimetrically.

CCCCCCCCCCCC(=O)OC[C@H](O)[C@H]1OC(=O)C(O)=C1O [Compound 1, Ascorbyl Monolaurate]
Relative foam height compared to SLES as % [1]: 32%

Ascorbyl Monolaurate Sulphate [Compound 2]
Relative foam height compared to SLES as % [1]: 105% | irritancy/mildness (Zein): milder than many commercially available personal care surfactants including Sodium Laureth Sulfate (3EO) [SLES]

Sodium Laureth Sulphate (3EO)
Relative foam height compared to SLES as % [1]: 100%
